Measured values as given in patent publication US11680078B2, “Anticancer compounds” (GODAVARI BIOREFINERIES LIMITED, priority 2017, dated 2023).
Values joined by “and” are separate entries in the source; they are usually repeats but may differ in a detail not shown here. Equal values may be shown once.

Tests used:
DU145 = experiment: MTT antiproliferative assay, DU145; format: cell-based; settings: DU145 prostate cell line, 48 hrs drug incubation
Description: (§1) MTT assay is a simple and sensitive assay where, metabolic reducing activity of the cells is measured. The increase of this activity in time is taken as a parameter of cell growth. If treatment with a drug impairs this increase, the action may be a consequence of growth inhibition, cell killing or both. The compounds of Formula V to XIV of the present invention, standard cytotoxic drug (e.g. Cisplatin) were tested at different concentrations (1, 0.1, 0.01, 0.001 mM) using breast and prostate cancer cell lines. All cell lines were cultured in a 37° C. incubator with a 5% CO2 environment. Compounds were dissolved in DMSO with a concentration of 0.1M (stock solution). Cells were seeded into 96-well plates at suitable plating efficiency.
(§2) Following Plating Efficiencies were Standardized for MTT Assay:
(§3) The MTT procedure followed was as follows. Briefly, the cells were plated in 96 well plate as per predetermined plating efficiency (Table 1) The plates were then incubated for 24 hrs in 5% CO2 atmosphere at 37° C. Appropriate concentrations of the drugs were then added to the plate and further incubation was carried out for 48 hrs (in 5% CO2 atmosphere at 37° C.). The assay plate was then centrifuged twice at 3000 rpm for 3 mins and supernatant was then discarded. 100 ul of MTT solution (0.5 mg/ml) was then added to each well of the plate and it was further incubated for 4 hrs (in 5% CO2 atmosphere at 37° C.) Following 4 hr incubation, the plate was then centrifuged twice, and supernatant was aspirated off very carefully. 200 ul of DMSO was then added to each well to solubilize. MTT crystals and mixed well by shaking the plate. XY graph of log Percent viability was then plotted against log drug concentration. […] (Drug concentration inhibiting the 50% of cell population) was then calculated by regression analysis.

PC3 [1] = experiment: MTT antiproliferative assay, PC3; format: cell-based; settings: PC3 prostate cell line, 48 hrs drug incubation
Description: as §1, §2, §3

spheres of PC3 = experiment: In vitro sphere-forming assay, PC3 in Prostosphere media; format: cell-based; settings: 2000 cells/well, n = 6 ± S.D
From the text: (§4) Sphere assay measures the ability of Cancer Stein Cells to form spheres in specially designed serum-free medium. We have used this assay to measure the killing efficiency of the test compounds as compared to the standard chemotherapeutic drug, Cisplatin.
(§5) Materials and Reagents:50× B27 Supplement (Life Technologies, Invitrogen, Catalog No.: 17502-044), Fibroblast Growth Factor (FGF) (Sigma-Aldrich, Catlog No.: F029125), Epidermal Growth Factor (EGF) (Sigma-Aldrich, Catlog No.: E9644), Insulin (Sigma, Catlog No.: 19278), Dulbecco's Modified Eagle Medium/F12 (HiMedia Catlog No.: AL139-6), Dulbecco's Phosphate Buffered Saline (HiMedia Catlog No.: TL1006), Trypan Blue (TC193), Prostate Epithelial Media (LONZA, Catlog No.: CC-3166) MEGM (LONZA, Catlog No.: CC-3051), Heparin (Sigma, Catlog No.: H3393), Penstrep (HiMedia, Catlog No.: A002)
Prostosphere Media Preparation (For 100 mL):1 g methyl cellulose autoclaved with magnetic stirrer, Plain media (Prostate Epithelial Basal Medium), 100 mL added and dissolved, under magnetic stirring. After complete dissolution, add: Insulin-40 μL, B27-2 mL, EGF-80 μL, Penstrep-1 ml.
(§6) Procedure: —The cells were trypsinised and made into single-cell suspension by passing through cell strainers ([…], respectively), The cells were diluted at the concentration of 2000 cells/100 μL and suspended in either Mammosphere (for breast cell lines) or Prostosphere (for prostate cell lines). 100 μL of this suspension was added into each well of 96-well suspension plates and incubated at 37° C., 5% CO2 for 24 hrs. Appropriate concentrations of the drugs (2 μL) were added into respective wells with 100 μL of stem cell culture medium. Plates were incubated at 37° C., 5% CO2 for 72 hrs. After incubation 2.5 μL of the respective drug concentration and 50 μL of stem cell culture medium were added into each well and the plates were further incubated at 37° C., 5% CO2 for 72 hrs. 3 μL of the respective drug concentration was added with 50 μL of stem cell culture medium again after incubation and plates were incubated again for 72 hrs at 37° C., 5% CO2. Number of primary spheres formed for each concentration was counted. A comparative graph of number of spheres formed was plotted against the concentration and the growth curve was compared with the positive control.

MCF7 = experiment: MTT antiproliferative assay, MCF7; format: cell-based; settings: MCF-7 breast cell line, 48 hrs drug incubation
Description: as §1, §2, §3

MDAMB231 [2] = experiment: Soft Agar colony-formation Assay, MDAMB231; format: cell-based; settings: MDAMB231 breast cell line, 1 week
Description: (§7) The Soft Agar Colony-formation Assay is an anchorage-independent growth assay in soft agar, which is one of the most stringent assays for detecting malignant transformation of cells. For this assay, malignant cells are cultured with appropriate controls in soft agar medium for 1-2 weeks. Following this incubation period, formed colonies can either be analyzed morphologically using cell stain and quantifying the number of colonies formed.
(§8) Briefly, for Soft Agar Assay a mixture of 50 ul of 2× medium (taken appropriately as per cell line) and 50 ul of 1.2% Bacto Agar were plated on to each well of 96 well micro titer assay plate. 10 ul of cells (Of specific plating efficiency pre-standardized for respective cell line) were mixed with 20 ul of 2× medium and 30 ul of 0.8% of Bacto Agar and 1.6 ul of drug (of appropriate concentration) in a vial and transferred to the solidified pre-layers of the assay plates. The cells were then allowed to grow and form colonies at 37° C. and 5% CO2 for 1 week. An intermittent feeding with 50 ul of appropriate 2× medium was performed after 3 days of experimental set up. 16 ul of Alamar Blue (1.5 mg/ml) was then added to all the wells to quantify the developed colonies. The plates were incubated for 24 hrs at 37° C. Absorbance was then measured at 630 nm. XY graph of log Percent viability was then plotted against log drug concentration. IC50 (Drug concentration inhibiting the 50% of cell population) was then calculated by regression analysis.
(§9) Following Plating Efficiencies Were Standardized for Soft Agar Assay: […]

PC3 [3] = experiment: Soft Agar colony-formation Assay, PC3; format: cell-based; settings: PC3 prostate cell line, 1 week
Description: as §7, §8, §9

MDAMB231 [4] = experiment: MTT antiproliferative assay, MDAMB231; format: cell-based; settings: MDAMB231 breast cell line, 48 hrs drug incubation
Description: as §1, §2, §3

spheres of MDAMB231 = experiment: In vitro sphere-forming assay, MDAMB231 in Mammosphere media; format: cell-based; settings: 2000 cells/well, n = 6 ± S.D
From the text: as §4, §5
Mammosphere Media Preparation (For 100 mL): 1 g methyl cellulose autoclaved with magnetic stirrer Plain media (MEBM), 100 mL added and dissolved under magnetic stirring. After complete dissolution, add: FGF-80 μL, EGF-40 μL, Penstrep-1 mL, Heparin-400 μL.
as §6

normal lymphocytes = experiment: Normal cell assay (MTT) on lymphocytes from a healthy donor
Description: In order to test the activity of cytotoxic drugs towards normal cells, we performed MTT
Assay for these cytotoxic drugs using lymphocytes obtained from a healthy donor.
Briefly, diluted defibrinated fresh blood was overlaid gradually on HiSeP LSM1077 and centrifuged at low speed for 30 mins. The lymphocyte layer (the buffy coat) (Fig) was carefully removed in a new collection tube. The buffy coat was given another wash, by the diluent buffer, to reduce the platelet contamination. The supernatant was discarded, and the pellet was resuspended in diluent buffer. The viability was checked by Haemocytometer. Cells with Viability and Purity of 95% and more were considered for the assay. MTT assay was performed with these cells as described above with plating efficiency of 0.7 million/ml.

[5] = Homo sapiens, MDA-MB-231, 168 h

SMILES | 3D sphere count of PC3 (spheres of PC3; drug conc 0.025 uM) | 3D sphere count of PC3 (spheres of PC3; drug conc 0.25 uM) | 3D sphere count of PC3 (spheres of PC3; drug conc 2.5 uM) | 3D sphere count of PC3 (spheres of PC3; drug conc 25 uM) | 3D sphere count of PC3 (spheres of PC3; drug conc 250 uM) | 3D sphere count of MDAMB231 (spheres of MDAMB231; drug conc 0.025 uM) | 3D sphere count of MDAMB231 (spheres of MDAMB231; drug conc 0.25 uM) | 3D sphere count of MDAMB231 (spheres of MDAMB231; drug conc 2.5 uM) | 3D sphere count of MDAMB231 (spheres of MDAMB231; drug conc 25 uM) | 3D sphere count of MDAMB231 (spheres of MDAMB231; drug conc 250 uM) | IC50 (DU145; Homo sapiens, DU-145) [µM] | IC50 (PC3 [1]; Homo sapiens, PC-3) [µM] | IC50 (MCF7; Homo sapiens, MCF7) [µM] | IC50 (MDAMB231 [2]; [5]) [µM] | IC50 (PC3 [3]; Homo sapiens, PC-3, 168 h) [µM] | IC50 (MDAMB231 [4]; Homo sapiens, MDA-MB-231) [µM] | also measured
N.N.[Cl][Pt][Cl] [Cisplatin, reference compound] | 58(±4) and 47(±4) and 62(±5) and 45(±2) | 47(±5) and 49(±7) and 55(±5) and 42(±3) | 40(±3) and 41(±4) and 46(±2) and 39(±2) | 32(±2) and 31(±5) and 33(±3) and 32(±3) | 25(±3) and 30(±5) and 22(±4) and 21(±2) | 50(±3) and 89(±4) and 62(±6) and 67(±2) | 42(±3) and 69(±7) and 48(±2) and 58(±3) | 35(±2) and 51(±5) and 43(±2) and 46(±3) | 31(±3) and 38(±8) and 37(±4) and 35(±2) | 18(±2) and 23(±5) and 31(±4) and 26(±3) | – | – | – | – | – | – | IC50 (DU145): 23.9 µM and 43 µM and 34.4 µM and 35.5 µM; IC50 (PC3 [1]): 28 µM and 29 µM and 40.7 µM and 35.8 µM and 36.4 µM; IC50 (MCF7): 29.6 µM and 32.4 µM and 33 µM; IC50 (MDAMB231 [2]): 41.7 µM and 24.8 µM and 37.3 µM and 23.9 µM; IC50 (PC3 [3]): 20.6 µM and 21.3 µM and 23.8 µM and 21.9 µM; IC50 (MDAMB231 [4]): 32.7 µM and 38.5 µM and 37 µM and 35.5 µM
O=C(Oc1ccc(-c2ccc3c(c2)OCO3)c2ccccc12)C(c1ccccc1)C1CCCC1 (stereo not drawn) [Formula IX, 1-(benzo[d][1,3]dioxol-5-yl)naphthalen-4-yl 2-cyclopentyl-2-phenylacetate] | 60(±7) | 44(±4) | 37(±5) | 31(±3) | 0(±0) | 52(±4) | 40(±5) | 26(±3) | 22(±3) | 0(±0) | 8.91 | 5.62 | 5.24 | 2.12 | 4.81 | 5.26 | –
CCOC(=O)c1c(C(=O)OCC)c(-c2ccc3c(c2)OCO3)c2cc(OC)c(OC)cc2c1OC1OC[C@@H](OC)[C@H](OC)[C@H]1O (stereo partly drawn) [Formula VI, diethyl 1-(benzo[d][1,3]dioxol-5-yl)-4-((3R,4R,5R)-3-hydroxy-4,5-dimethoxy-tetrahydro-2H-pyran-2-yloxy)-6,7-dimethoxynaphthalene-2,3-dicarboxylate] | 40(±3) | 28(±2) | 30(±2) | 21(±2) | 0(±0) | 44(±3) | 36(±2) | 24(±3) | 7(±2) | 0(±0) | – | 5.65 | – | 14.2 | 3.25 | 10.1 | activity on normal lymphocytes (normal lymphocytes): does not show activity
Cn1cccc1C(=O)Oc1ccc(-c2ccc3c(c2)OCO3)c2ccccc12 [Formula X, 1-(benzo[d][1,3]dioxol-5-yl)naphthalen-4-yl 1-methyl-1H-pyrrole-2-carboxylate] | – | – | – | – | – | 39(±4) | 37(±4) | 28(±3) | 24(±3) | 0(±0) | 3.28 | 2.6 | 3.46 | 2.07 | 2.38 | 3.16 | activity on normal lymphocytes (normal lymphocytes): does not show activity
O[C@@H]1[C@H](O)COC(Oc2ccc(-c3ccc4c(c3)OCO4)c3ccccc23)[C@H]1O (stereo partly drawn) [Formula XI, (3S,4R,5R)-2-(1-(benzo[d][1,3]dioxol-5-yl)naphthalen-4-yloxy)-tetrahydro-2H-pyran-3,4,5-triol] | – | – | – | – | – | – | – | – | – | – | 10.2 | 4.16 | 4.36 | 2.08 | 18.8 | 9.77 | –
O=C(Nc1ccc(-c2ccc3c(c2)OCO3)c2ccccc12)c1ccco1 [Formula XII, N-(1-(benzo[d][1,3]dioxol-5-yl)naphthalen-4-yl)furan-2-carboxamide] | 37(±3) | 28(±3) | 23(±2) | 15(±2) | 0(±0) | 31(±2) | 27(±2) | 17(±2) | 8(±1) | 0(±0) | 9.82 | 19.6 | 4.95 | 2.14 | 3.36 | 3.37 | –
Cl.c1ccc(COc2ccc(-c3ccc4c(c3)OCO4)c3cccnc23)cc1 [Formula XIII, 5-(benzo[d][1,3]dioxol-5-yl)-8-(benzyloxy)quinoline hydrochloride] | 41(±7) | 39(±5) | 27(±3) | 14(±1) | 0(±0) | 45(±2) | 36(±3) | 27(±2) | 13(±2) | 0(±0) | 4.06 | 4.33 | – | 2.68 | 6.32 | 8 | –
